Molecular target: wild-type human cardiac sodium channel, hNav1.5 (Homo sapiens, UniProt Q14524)
Assay: Late INa screening assay (automated whole cell patch clamp, PatchXpress)
Assay type: cell-based
Settings: compound at 1 μM; HEK293 cells expressing hNav1.5; late INa generated with 10 μM Tefluthrin (or 50 nM ATX II); read-out: LateINa_1 uM (percent block of late INa)
Procedure: The late sodium current (Late INa) and peak sodium current (Peak INa) assays are performed on an automated electrophysiology platform, PatchXpress 7000A (MDS Analytical Technologies, Sunnyvale, Calif.), which uses the whole cell patch clamp technique to measure currents through the cell membrane of up to 16 cells at a time. The assay uses an HEK293 (human embryonic kidney) cell line heterologously expressing the wild-type human cardiac sodium channel, hNav1.5, purchased from Millipore (Billerica, Mass.). No beta subunits were coexpressed with the Na channel alpha subunit. Cells are maintained with standard tissue culture procedures and stable channel expression is maintained with 400 μg/ml Geneticin in the culture medium. […] Experiments are carried out at 24-27° C.
For both the Late INa and Peak INa assays, series resistance compensation is set to 50% and whole-cell compensation is performed automatically. […] Currents through open sodium channels are automatically recorded and stored in the DataXpress2 database (MDS Analytical Technologies, Sunnyvale, Calif.). Analysis is performed using DataXpress2 analysis software and data are compiled in Excel.
Compound stocks are routinely made in glass vials to 10 mM in dimethyl sulfoxide (DMSO). In some cases, when compounds are not soluble in DMSO, they are made in 100% ethanol. Stocks are sonicated as necessary. The extracellular solution for screening Late INa is composed of: 140 mM NaCl, 4 mM KCl, 1.8 mM CaCl2, 0.75 mM MgCl2, and 5 mM HEPES with pH adjusted to 7.4 using NaOH. The extracellular solution for screening Peak INa is composed of: 20 mM NaCl, 120 mM N-methyl-D glucamine, 4 mM KCl, 1.8 mM CaCl2, 0.75 mM MgCl2, and 5 mM HEPES with pH adjusted to 7.4 using HCl. The intracellular solution used to perfuse the inside of the cells for both the Late INa and Peak INa assays contains: 120 mM CsF, 20 mM CsCl, 5 mM EGTA, 5 mM HEPES and pH adjusted to 7.4 with CsOH. […] The 0Na extracellular solution used at the end of each experiment for the Late INa and Peak INa assays to measure baseline current contains: 140 mM N-methyl-D-glucamine; 4 mM KCl; 1.8 mM CaCl2; 0.75 mM MgCl2; 5 mM HEPES and pH was adjusted to 7.4 with HCl.
For the Late INa assay, sodium channels are activated every 10 seconds (0.1 Hz) by depolarizing the cell membrane to −20 mV for 250 milliseconds (ms) from a holding potential of −120 mV. In response to a −20 mV voltage step, typical Nav1.5 sodium currents activate rapidly to a peak negative current and then inactivate nearly completely within […].
All compounds are tested to determine their activity in blocking the late sodium current. Late INa current is generated by adding 10 μM Tefluthrin (pyrethroid) to the extracellular solution while recording Na currents For some experiments, 50 nM ATX II (sea anemone toxin), another late INa activator, was used to generate the late component. […] After establishing the whole cell recording configuration, late INa activators are added to each well 4 times over a 16-17 minute period so that the late component of the Na current reaches a stable value. […] Measurements are made at the end of exposure to the third compound addition and values are normalized to the current level when all Na^+ is removed from the extracellular solution after two additions of 0Na-ECF. Results are reported as percent block of late INa

Chain of wild-type human cardiac sodium channel, hNav1.5 (Q14524 whole entry): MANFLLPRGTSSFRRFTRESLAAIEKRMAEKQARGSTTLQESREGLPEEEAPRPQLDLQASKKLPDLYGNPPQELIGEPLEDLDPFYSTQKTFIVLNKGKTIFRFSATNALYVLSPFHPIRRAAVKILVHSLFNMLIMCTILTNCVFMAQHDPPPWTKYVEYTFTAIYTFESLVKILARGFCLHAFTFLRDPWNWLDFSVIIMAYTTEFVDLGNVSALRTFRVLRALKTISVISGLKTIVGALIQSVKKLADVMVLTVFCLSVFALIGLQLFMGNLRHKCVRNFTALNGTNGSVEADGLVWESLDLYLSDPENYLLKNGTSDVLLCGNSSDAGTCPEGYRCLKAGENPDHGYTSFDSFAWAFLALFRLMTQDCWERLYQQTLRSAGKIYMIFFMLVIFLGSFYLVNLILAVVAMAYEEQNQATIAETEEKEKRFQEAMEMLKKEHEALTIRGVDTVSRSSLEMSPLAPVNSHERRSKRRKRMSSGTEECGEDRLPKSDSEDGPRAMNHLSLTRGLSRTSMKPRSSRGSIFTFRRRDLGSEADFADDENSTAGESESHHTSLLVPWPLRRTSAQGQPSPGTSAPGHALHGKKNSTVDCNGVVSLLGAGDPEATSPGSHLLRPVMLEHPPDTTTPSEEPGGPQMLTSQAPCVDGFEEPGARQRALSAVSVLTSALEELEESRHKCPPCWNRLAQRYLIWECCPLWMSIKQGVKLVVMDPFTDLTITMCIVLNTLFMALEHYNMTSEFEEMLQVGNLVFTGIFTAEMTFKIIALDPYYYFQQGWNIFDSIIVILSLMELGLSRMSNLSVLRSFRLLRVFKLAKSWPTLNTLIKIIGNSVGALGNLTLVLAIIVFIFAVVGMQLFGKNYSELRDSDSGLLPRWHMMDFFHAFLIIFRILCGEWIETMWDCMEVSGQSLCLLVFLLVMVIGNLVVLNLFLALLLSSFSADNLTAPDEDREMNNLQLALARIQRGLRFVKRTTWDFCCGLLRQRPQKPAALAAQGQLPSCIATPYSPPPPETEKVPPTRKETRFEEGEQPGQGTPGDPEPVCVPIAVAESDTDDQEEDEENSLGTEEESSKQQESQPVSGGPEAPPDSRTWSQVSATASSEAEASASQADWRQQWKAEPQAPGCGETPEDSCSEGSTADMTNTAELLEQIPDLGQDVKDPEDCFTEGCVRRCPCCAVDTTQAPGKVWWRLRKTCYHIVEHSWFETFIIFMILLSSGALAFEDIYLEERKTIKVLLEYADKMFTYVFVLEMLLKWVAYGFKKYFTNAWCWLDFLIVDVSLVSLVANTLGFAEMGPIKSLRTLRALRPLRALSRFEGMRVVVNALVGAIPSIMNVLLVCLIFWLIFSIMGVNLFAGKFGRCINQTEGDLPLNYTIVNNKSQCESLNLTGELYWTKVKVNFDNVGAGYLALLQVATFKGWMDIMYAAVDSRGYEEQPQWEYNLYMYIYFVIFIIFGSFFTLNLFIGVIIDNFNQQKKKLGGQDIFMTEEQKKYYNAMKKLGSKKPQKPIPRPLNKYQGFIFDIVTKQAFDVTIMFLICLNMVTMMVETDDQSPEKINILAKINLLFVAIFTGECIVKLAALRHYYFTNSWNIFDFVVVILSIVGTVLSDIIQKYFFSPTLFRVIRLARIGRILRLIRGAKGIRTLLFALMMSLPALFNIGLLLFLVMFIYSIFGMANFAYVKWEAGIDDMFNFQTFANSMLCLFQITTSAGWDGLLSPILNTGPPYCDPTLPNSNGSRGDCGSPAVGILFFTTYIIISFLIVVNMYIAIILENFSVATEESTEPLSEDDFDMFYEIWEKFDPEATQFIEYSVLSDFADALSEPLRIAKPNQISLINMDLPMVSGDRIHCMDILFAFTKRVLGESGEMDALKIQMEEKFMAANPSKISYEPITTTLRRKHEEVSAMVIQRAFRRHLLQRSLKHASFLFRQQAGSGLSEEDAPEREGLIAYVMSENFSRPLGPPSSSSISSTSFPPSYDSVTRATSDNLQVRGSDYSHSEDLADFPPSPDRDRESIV

**Q.** With `CC(C)c1nnc2ccc(-c3ccc(OCC(F)(F)F)nc3)nn12` [BHN-203, 3-(propan-2-yl)-6-[6-(2,2,2-trifluoroethoxy)pyridin-3-yl][1,2,4]triazolo[4,3-b]pyridazine] as the compound, how does the inhibition at 1 µM read?
**A.** Its inhibition at 1 µM is 19.3%.

**Q.** With `Fc1cc(-c2ccc3nnc(C(F)F)n3n2)ccc1OC(F)(F)F` [BHN-253, 3-(difluoromethyl)-6-[3-fluoro-4-(trifluoromethoxy)phenyl][1,2,4]triazolo[4,3-b]pyridazine] as the compound, how does the inhibition at 1 µM read?
**A.** The inhibition at 1 µM was 39.4%.

**Q.** Which inhibition at 1 µM does the source give for `Cc1cc(-c2ccc(OC(F)(F)F)cc2)cn2c(C(F)(F)F)nnc12` [BHN-103, 8-methyl-6-[4-(trifluoromethoxy)phenyl]-3-(trifluoromethyl)[1,2,4]triazolo[4,3-a]pyridine] here?
**A.** The inhibition at 1 µM was 40.7%.

**Q.** For `COc1ncc(-c2cc(OC(F)(F)F)ccc2-c2ccc3nnc(C(F)(F)F)n3c2)cn1` [BHN-131, 6-[2-(2-methoxypyrimidin-5-yl)-4-(trifluoromethoxy)phenyl]-3-(trifluoromethyl)[1,2,4]triazolo[4,3-a]pyridine], which inhibition at 1 µM is on record?
**A.** The inhibition at 1 µM was 18.5%.

**Q.** For `CC(=O)c1ccc(-c2ccc3nnc(C(F)(F)F)n3c2)cc1` [BHN-154, 1-(4-(3-(trifluoromethyl)-[1,2,4]triazolo[4,3-a]pyridin-6-yl)phenyl)ethanone], which inhibition at 1 µM is on record?
**A.** The inhibition at 1 µM was 19.2%.

**Q.** Which inhibition at 1 µM does the source give for `O=[N+]([O-])c1cc(F)ccc1Oc1ccc(-c2ccc3nnc(C(F)(F)F)n3c2)cc1` [BHN-110, 6-[4-(4-fluoro-2-nitrophenoxy)phenyl]-3-(trifluoromethyl)[1,2,4]triazolo[4,3-a]pyridine] here?
**A.** The inhibition at 1 µM was 18.2%.

**Q.** For `CC#CCOC(F)(F)c1nnc2ccc(-c3ccc(OC(F)(F)F)cc3)cn12` [BHN-293, 3-[(but-2-yn-1-yloxy)(difluoro)methyl]-6-[4-(trifluoromethoxy)phenyl][1,2,4]triazolo[4,3-a]pyridine], which inhibition at 1 µM is on record?
**A.** The inhibition at 1 µM was 80.6%.

**Q.** `N#CCOCc1c(-c2ccc(OC(F)(F)F)cc2)ccc2nnc(C(F)(F)F)n12` [BHN-279, ({6-[4-(trifluoromethoxy)phenyl]-3-(trifluoromethyl)[1,2,4]triazolo[4,3-a]pyridin-5-yl}methoxy)acetonitrile] was tested. Which inhibition at 1 µM did it give?
**A.** The inhibition at 1 µM was 19.1%.

**Q.** For `Fc1cc(-c2ccc3nnc(C(F)(F)F)n3n2)cc(F)c1Oc1ccccc1` [BHN-210, 6-(3,5-difluoro-4-phenoxyphenyl)-3-(trifluoromethyl)[1,2,4]triazolo[4,3-b]pyridazine], which inhibition at 1 µM is on record?
**A.** Its inhibition at 1 µM is 33.8%.

**Q.** Which inhibition at 1 µM does the source give for `FC(F)(F)Oc1ccc(COCc2nnc3ccc(-c4ccc(OC(F)(F)F)cc4)cn23)cc1` [BHN-242, 3-({[4-(trifluoromethoxy)benzyl]oxy}methyl)-6-[4-(trifluoromethoxy)phenyl][1,2,4]triazolo[4,3-a]pyridine] here?
**A.** The inhibition at 1 µM was 72.2%.

**Q.** `FC(F)(F)COc1nnc2ccc(-c3ccc(OC(F)(F)F)cc3)cn12` [BHN-186, 3-(2,2,2-trifluoroethoxy)-6-[4-(trifluoromethoxy)phenyl][1,2,4]triazolo[4,3-a]pyridine] was tested. Which inhibition at 1 µM did it give?
**A.** Its inhibition at 1 µM is 45.2%.

**Q.** With `FC(F)(F)Oc1ccc(-c2ccc3nnc(C(F)(F)OCc4cn(-c5ccccc5)nc4C(F)(F)F)n3c2)cc1` [BHN-314, 3-(difluoro{[1-phenyl-3-(trifluoromethyl)-1H-pyrazol-4-yl]methoxy}methyl)-6-[4-(trifluoromethoxy)phenyl][1,2,4]triazolo[4,3-a]pyridine] as the compound, how does the inhibition at 1 µM read?
**A.** Its inhibition at 1 µM is 24.2%.

**Q.** With `CCOC(=O)c1cccc(-c2nnc3ccc(-c4ccc(OC(F)(F)F)cc4)cn23)c1` [BHN-87, ethyl 3-{6-[4-(trifluoromethoxy)phenyl][1,2,4]triazolo[4,3-a]pyridin-3-yl}benzoate] as the compound, how does the inhibition at 1 µM read?
**A.** The inhibition at 1 µM was 38.9%.

**Q.** Which inhibition at 1 µM does the source give for `CC(C)(O)C(F)(F)c1nnc2ccc(-c3ccc(OC(F)(F)F)cc3)cn12` [BHN-176, 1,1-difluoro-2-methyl-1-{6-[4-(trifluoromethoxy)phenyl][1,2,4]triazolo[4,3-a]pyridin-3-yl}propan-2-ol] here?
**A.** The inhibition at 1 µM was 15.2%.

**Q.** For `Fc1ccc(Nc2ccc(-c3ccc4nnc(C(F)(F)F)n4c3)cc2)cc1` [BHN-284, 4-fluoro-N-{4-[3-(trifluoromethyl)[1,2,4]triazolo[4,3-a]pyridin-6-yl]phenyl}aniline], which inhibition at 1 µM is on record?
**A.** The inhibition at 1 µM was 31.4%.

**Q.** For `COCC(F)(F)c1nnc2ccc(C#Cc3ccc(F)cc3)cn12` [BHN-310, 3-(1,1-difluoro-2-methoxyethyl)-6-[(4-fluorophenyl)ethynyl][1,2,4]triazolo[4,3-a]pyridine], which inhibition at 1 µM is on record?
**A.** The inhibition at 1 µM was 21.7%.

**Q.** `Fc1cccc(F)c1CCOC(F)(F)c1nnc2ccc(-c3ccc(OC(F)(F)F)cc3)cn12` [BHN-322, 3-{[2-(2,6-difluorophenyl)ethoxy](difluoro)methyl}-6-[4-(trifluoromethoxy)phenyl][1,2,4]triazolo[4,3-a]pyridine] was tested. Which inhibition at 1 µM did it give?
**A.** Its inhibition at 1 µM is 72.5%.

**Q.** With `COCC(F)(F)c1nnc2ccc(-c3ccc(OC(F)(F)F)c(F)c3)cn12` [BHN-232, 3-(1,1-difluoro-2-methoxyethyl)-6-[3-fluoro-4-(trifluoromethoxy)phenyl][1,2,4]triazolo[4,3-a]pyridine] as the compound, how does the inhibition at 1 µM read?
**A.** The inhibition at 1 µM was 45.3%.

**Q.** Which inhibition at 1 µM does the source give for `OCCOC(F)(F)c1nnc2ccc(-c3ccc(OC(F)(F)F)cc3)cn12` [BHN-157, 2-(difluoro{6-[4-(trifluoromethoxy)phenyl][1,2,4]triazolo[4,3-a]pyridin-3-yl}methoxy)ethanol] here?
**A.** The inhibition at 1 µM was 18.3%.

**Q.** `CNC(=O)c1cc(-c2ccc3nnc(C(F)(F)F)n3c2)ccc1OC(F)(F)F` [BHN-174, N-methyl-2-(trifluoromethoxy)-5-[3-(trifluoromethyl)[1,2,4]triazolo[4,3-a]pyridin-6-yl]benzamide] was tested. Which inhibition at 1 µM did it give?
**A.** The inhibition at 1 µM was 16%.

**Q.** `COCC(F)(F)c1nnc2ccc(C#Cc3ccc(C(F)(F)F)cc3)cn12` [BHN-234, 3-(1,1-difluoro-2-methoxyethyl)-6-{[4-(trifluoromethyl)phenyl]ethynyl}[1,2,4]triazolo[4,3-a]pyridine] was tested. Which inhibition at 1 µM did it give?
**A.** Its inhibition at 1 µM is 57.8%.

**Q.** `FC(F)(F)c1ncc2ccc(-c3ccccc3)cn12` [BHN-194, 6-phenyl-3-(trifluoromethyl)imidazo[1,5-a]pyridine] was tested. Which inhibition at 1 µM did it give?
**A.** Its inhibition at 1 µM is 22.2%.

**Q.** How did the inhibition at 1 µM turn out when `FC(F)(F)Oc1ccc(-c2ccc3nnc(C(F)(F)COCc4ccccn4)n3c2)cc1` [BHN-172, 3-[1,1-difluoro-2-(pyridin-2-ylmethoxy)ethyl]-6-[4-(trifluoromethoxy)phenyl][1,2,4]triazolo[4,3-a]pyridine] was run?
**A.** The inhibition at 1 µM was 30.7%.

**Q.** `FC(F)(F)c1ccc(-c2ccc3nnc(C(F)(F)F)n3c2)c(C(F)(F)F)c1` [BHN-199, 6-[2,4-bis(trifluoromethyl)phenyl]-3-(trifluoromethyl)[1,2,4]triazolo[4,3-a]pyridine] was tested. Which inhibition at 1 µM did it give?
**A.** Its inhibition at 1 µM is 20.6%.

**Q.** For `FC(F)(F)c1ccc(-c2ccc3nnc(C(F)(F)F)n3c2)nn1` [BHN-121, 3-(trifluoromethyl)-6-[6-(trifluoromethyl)pyridazin-3-yl][1,2,4]triazolo[4,3-a]pyridine], which inhibition at 1 µM is on record?
**A.** Its inhibition at 1 µM is 21.9%.

**Q.** How did the inhibition at 1 µM turn out when `FC(F)(F)c1nnc2ccc(-c3ccc(Nc4ccccc4)cc3)cn12` [BHN-114, N-phenyl-4-[3-(trifluoromethyl)[1,2,4]triazolo[4,3-a]pyridin-6-yl]aniline] was run?
**A.** The inhibition at 1 µM was 37.4%.

Same assay, conditions: compound at 10 μM; HEK293 cells expressing hNav1.5; late INa generated with 10 μM Tefluthrin (or 50 nM ATX II); read-out: LateINa_10 uM (percent block of late INa)

**Q.** How did the inhibition at 10 µM turn out when `c1ccc(Oc2ccc(-c3ccc4nnc(-c5ccc(-c6nn[nH]n6)cc5)n4n3)cc2)cc1` [BHN-50, 6-(4-phenoxyphenyl)-3-[4-(2H-tetrazol-5-yl)phenyl][1,2,4]triazolo[4,3-b]pyridazine] was run?
**A.** Its inhibition at 10 µM is 31%.

**Q.** For `O=C(O)Cc1nnc2ccc(-c3ccc(OC(F)(F)F)cc3)cn12` [BHN-19, {6-[4-(trifluoromethoxy)phenyl][1,2,4]triazolo[4,3-a]pyridin-3-yl}acetic acid], which inhibition at 10 µM is on record?
**A.** Its inhibition at 10 µM is 35.4%.

**Q.** `CCOC(=O)c1cccc(-c2nnc3ccc(-c4ccc(OC(F)(F)F)cc4)cn23)c1` [BHN-87, ethyl 3-{6-[4-(trifluoromethoxy)phenyl][1,2,4]triazolo[4,3-a]pyridin-3-yl}benzoate] was tested. Which inhibition at 10 µM did it give?
**A.** Its inhibition at 10 µM is 72.2%.

**Q.** `COC(=O)/C=C/c1nc(C(F)(F)F)n2cc(-c3ccc(OC(F)(F)F)cc3)ccc12` [BHN-58, methyl (2E)-3-{6-[4-(trifluoromethoxy)phenyl]-3-(trifluoromethyl)imidazo[1,5-a]pyridin-1-yl}prop-2-enoate] was tested. Which inhibition at 10 µM did it give?
**A.** The inhibition at 10 µM was 27.6%.

From patent publication US8952034B2, “Fused heterocyclic compounds as ion channel modulators” (Gilead Sciences, Inc., priority 2009, dated 2015)
